Here are results for three molecules from paper doi:10.1101/2023.06.17.545066v1 (biorxiv, 2023).

The term Ki denotes a measure of affinity in units of concentration, obtained from inhibition or displacement. A word on the Km: it is the concentration of substrate that gives half-maximal velocity.

For data set [1], the target named is T1, EcL-TTD (L-tartrate dehydratase, L-TTDα + L-TTDβ) (Escherichia coli, UniProt P05847+P0AC35).
T1 sequence (P05847 1-303): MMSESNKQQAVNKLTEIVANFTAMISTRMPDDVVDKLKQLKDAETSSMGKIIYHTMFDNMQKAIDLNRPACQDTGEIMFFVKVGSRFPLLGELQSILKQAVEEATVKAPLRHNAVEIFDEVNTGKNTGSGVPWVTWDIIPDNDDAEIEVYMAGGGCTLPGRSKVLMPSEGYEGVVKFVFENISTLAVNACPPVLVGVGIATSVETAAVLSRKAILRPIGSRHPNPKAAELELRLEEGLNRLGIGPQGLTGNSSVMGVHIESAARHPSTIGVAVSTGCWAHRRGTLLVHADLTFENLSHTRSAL
T1 sequence (P0AC35 1-201): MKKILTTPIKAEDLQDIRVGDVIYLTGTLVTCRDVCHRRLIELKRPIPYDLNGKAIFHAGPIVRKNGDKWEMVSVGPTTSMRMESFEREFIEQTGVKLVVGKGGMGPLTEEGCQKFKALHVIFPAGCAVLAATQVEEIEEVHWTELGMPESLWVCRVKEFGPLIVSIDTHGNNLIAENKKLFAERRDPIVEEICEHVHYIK
Nature of the data set: coupled malate dehydrogenase/NADH assay at […] nm, inhibition kinetics. The class given is biochemical.

The target in data set [2] is T2, MjFH (class-I fumarate hydratase, α + β subunits) (Methanocaldococcus jannaschii, UniProt Q58034+Q58690).
T2 sequence (Q58690 1-285): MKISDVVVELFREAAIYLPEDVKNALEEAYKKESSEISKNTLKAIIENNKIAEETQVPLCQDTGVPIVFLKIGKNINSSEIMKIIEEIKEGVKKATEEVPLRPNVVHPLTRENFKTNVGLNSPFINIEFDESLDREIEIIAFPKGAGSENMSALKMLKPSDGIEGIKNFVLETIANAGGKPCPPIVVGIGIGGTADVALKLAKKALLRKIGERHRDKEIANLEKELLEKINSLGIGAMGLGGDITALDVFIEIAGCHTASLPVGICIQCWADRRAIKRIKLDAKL
T2 sequence (Q58034 1-195): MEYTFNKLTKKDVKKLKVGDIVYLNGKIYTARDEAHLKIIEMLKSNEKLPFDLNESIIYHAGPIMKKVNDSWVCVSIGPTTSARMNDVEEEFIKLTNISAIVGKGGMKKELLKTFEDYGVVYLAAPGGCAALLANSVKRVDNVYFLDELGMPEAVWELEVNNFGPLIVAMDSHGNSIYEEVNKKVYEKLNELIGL
Nature of the data set: fumarate formation at […] nm, inhibition kinetics. The class given is biochemical.

Substrate in the data set “purified protein”: O=C(O)C(O)C(O)C(=O)O
Briefly: purified protein. The class given is biochemical, Escherichia coli. Particulars: 50 mM Tris-HCl pH 7.4, 37 °C, 250 μM NADH, Fe-S reconstituted.

As for `O=C(O)C[C@H](O)C(=O)O` [S-malate], the Ki in data set [1] was 261 ± 29 µM.

Turning to `O=C(O)C(O)C(O)C(=O)O` (stereo not drawn) [meso-tartrate], the Ki in data set [1] stood at 149 ± 14 µM; in data set [2], 161 ± 17 µM.

B1: EcL-TTD (L-tartrate dehydratase, L-TTDα + L-TTDβ) (Escherichia coli K-12) (protein)
chain 1: MMSESNKQQAVNKLTEIVANFTAMISTRMPDDVVDKLKQLKDAETSSMGKIIYHTMFDNMQKAIDLNRPACQDTGEIMFFVKVGSRFPLLGELQSILKQAVEEATVKAPLRHNAVEIFDEVNTGKNTGSGVPWVTWDIIPDNDDAEIEVYMAGGGCTLPGRSKVLMPSEGYEGVVKFVFENISTLAVNACPPVLVGVGIATSVETAAVLSRKAILRPIGSRHPNPKAAELELRLEEGLNRLGIGPQGLTGNSSVMGVHIESAARHPSTIGVAVSTGCWAHRRGTLLVHADLTFENLSHTRSAL
chain 2: MKKILTTPIKAEDLQDIRVGDVIYLTGTLVTCRDVCHRRLIELKRPIPYDLNGKAIFHAGPIVRKNGDKWEMVSVGPTTSMRMESFEREFIEQTGVKLVVGKGGMGPLTEEGCQKFKALHVIFPAGCAVLAATQVEEIEEVHWTELGMPESLWVCRVKEFGPLIVSIDTHGNNLIAENKKLFAERRDPIVEEICEHVHYIK
For B1, the Km in the data set “purified protein” amounted to 190 ± 30 µM.
